{
  "source": "patent US10639319B2",
  "about": "“Human milk oligosaccharides for preventing injury and/or promoting healing of the gastrointestinal tract” (ABBOTT LABORATORIES, priority 2011, dated 2020)",
  "tested_on": "infant fecal bacteria",
  "assay": "In vitro substrate fermentation model with infant fecal inocula, isobutyrate (BCFA) analysis (Example 78)",
  "assay_type": "cell-based",
  "details": "for greater concentration of isobutyrate than any of the other substrates: infant fecal inoculum cultures, P<0.05",
  "data": [
    {"substance": "2′-α-L-Fucopyranosyl-D-Lactose [2′-FL]", "values": [
      {"measurement": "fermentation by infant fecal bacteria", "setting": "in vitro fermentation model", "result": "readily fermented"},
      {"measurement": "production of isobutyrate as compared to other substrates", "setting": "in vitro fermentation model", "result": "enhances"},
      {"measurement": "greater concentration of isobutyrate than any of the other substrates", "setting": "6 hours", "result": "approximately 5 fold"},
      {"measurement": "greater concentration of isobutyrate than any of the other substrates", "setting": "12 hours", "result": "~10", "unit": "fold"}
    ]}
  ]
}
